Experiments:
[1] = target: T1, SapL1 (Scedosporium apiospermum, UniProt A0A084FYP2); assay: ITC (stoichiometry fixed to […]); type: binding
T1 construct: gene SAPIO_CDS9261; carbohydrate recognition domain, residues 75-369

[2] = target: T1, SapL1; assay: (X-ray) and ITC (stoichiometry fixed to […]); type: binding
[3] = target: the molecule itself; assay: dynamic light scattering; protein at 1 mg/mL in 50 mM Tris-HCl, 100 mM NaCl, pH 8.5, measured in triplicate after centrifugation; data not shown

Molecule `C[C@@H]1OC(O)[C@@H](O)[C@H](O)[C@@H]1O` (stereo partly drawn) [L-fucose] has a Kd [1] of 225 ± 1.52 µM.

With `CO[C@@H]1O[C@@H](C)[C@@H](O)[C@@H](O)[C@@H]1O` [α-methyl-L-fucoside, methyl-α-L-fucopyranoside] the Kd [2] was 190 ± 1.44 µM.

B1: Scedosporium apiospermum Lectin 1 (SapL1), carbohydrate recognition domain, residues 75-369 (domain or fragment)
chain: MSGVLQISFPAGIAAIRNNSSLRVYEAALDGGVREAQYEGRWAGGKPDNVIATGKIGTPIAATSVGFQYIRVYYVGADNKAREACWDGKGWYTGAFVKDVAPYSSIGAVFLGKNIVVRVYTQNHDNTIQEWVWDSPSTGWTAGANFGAALPGTAIAATSWGAGPYHIRVYFQDTNRNVIESGWDGSGWYTGGLKISNQSPRASLGATSWGESGSSLGIRLYYATQDNLIKEKAWDGGGGWYDGGFQQRSIPGSRVAAIPLPVLRVYLQNGTEVSGITEYAWNSGWVVGQAVLPPA
notes: the first 74 residues of the annotated protein, which the authors suspect to be a misannotation, are left out; In the crystal all 295 amino acids are visible except the N-terminal methionine; also called hypothetical protein XP_016640003.1; source: E. coli BL21trxB (DE3), pProNde vector, purified (IMAC, TEV cleavage, second His-trap pass); not shown: His6, N-terminal, cleaved
In the case of B1, the “stoichiometry N” value [3] is reported as 2.

From paper PMC8352872, “Biochemical and structural studies of target lectin SapL1 from the emerging opportunistic microfungus Scedosporium apiospermum” (Scientific Reports, 2021)
